What was measured:
[1] = target: T1, GDP-loaded KRAS (1-169) G12C, C51S, C80L, C118S (Homo sapiens, UniProt P01116, C118S/C51S/C80L/G12C); test: Mass Spectrometry Reactivity Assay (MSRA): covalent adduct of compound and KRAS G12C, Percent Modification; assay type: binding; settings: for MSRA (% modification) 10 μM 0.50 hr / MSRA (% modification) 10 μM 0.25 hr: 10 μM compound; for MSRA (% modification) 5.0 μM 0.25 hr / MSRA (% modification) 5.0 μM 0.017 hr: 5.0 μM compound
T1 construct: GDP-loaded KRAS (1-169) G12C, C51S, C80L, C118S
In short: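 GDP-loaded KRAS(1-169) G12C/C51S/C80L/C118S at 5 μM in 25 mM Hepes pH 7.5, 200 mM NaCl, 5% glycerol incubated at RT with compound (typically 5 or 10 μM final, 1% DMSO). Quenched in formic acid at 1-60 min; intact-protein LC-TOF MS gives % modification = modified/(modified+unmodified).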

KRAS G12C = KRAS G12C (Homo sapiens, UniProt P01116, G12C); test: Cell Activity Assay: accumulation of GDP-bound KRAS G12C in MIAPaCa-2 cells (Raf-1 RBD capture, MSD readout); assay type: cell-based; set-up: endogenous in cells; host or cells: MIAPaCa-2; settings: 6 hours, assay limit is 30.00
In short: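 MIAPaCa-2 cells exposed 6 h at 37 °C to 3-fold compound dilutions (0.3% DMSO final), then lysed. Active GTP-KRAS captured on Raf-1 RBD-coated plates, detected with anti-pan-Ras and SULFO-TAG secondary by MSD electrochemiluminescence. Signal normalized to DMSO and maximum inhibition; IC50 from 4-parameter fit.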

SMILES | MSRA (% modification) 10 μM 0.50 hr [1] [%] | IC50 (KRAS G12C) [µM] | MSRA (% modification) 10 μM 0.25 hr [1] [%] | MSRA (% modification) 5.0 μM 0.25 hr [1] [%] | MSRA (% modification) 5.0 μM 0.017 hr [1] [%]
C=CC(=O)N1CCN(c2nc(NCC3CC(=O)N(C)C3)nc3c(Oc4c(C)ccc5[nH]ncc45)cccc23)CC1 (stereo not drawn) [Example 04F, 4-[({4-(4-acryloylpiperazin-1-yl)-8-[(5-methyl-1H-indazol-4-yl)oxy]quinazolin-2-yl}amino)methyl]-1-methylpyrrolidin-2-one] | 43 | 7.28 | – | – | –
C=CC(=O)N1CCN(c2nc(OC[C@H]3COCCN3C)nc3c(Oc4c(Cl)c(F)cc5[nH]ncc45)nc(Cl)cc23)CC1 [Example 08G, 1-[4-(6-chloro-8-[(5-chloro-6-fluoro-1H-indazol-4-yl)oxy]-2-{[(3R)-4-methylmorpholin-3-yl]methoxy}pyrido[3,4-d]pyrimidin-4-yl)piperazin-1-yl]prop-2-en-1-one] | – | 0.148 | 80 | – | –
C=CC(=O)N1CCN(c2nc(O[C@@H]3CCOC3)nc3c(Oc4c(Cl)c(F)cc5[nH]ncc45)nccc23)CC1 [Example 02J, 1-(4-{8-[(5-chloro-6-fluoro-1H-indazol-4-yl)oxy]-2-[(3R)-tetrahydrofuran-3-yloxy]pyrido[3,4-d]pyrimidin-4-yl}piperazin-1-yl)prop-2-en-1-one] | – | 0.62 | – | 26 | –
C=CC(=O)N1CCN(c2nc(OC[C@@H]3CCCN3C)nc3c(Oc4c(C)ccc5[nH]ncc45)nccc23)CC1 [Example 08B, 1-[4-(8-[(5-methyl-1H-indazol-4-yl)oxy]-2-{[(2S)-1-methylpyrrolidin-2-yl]methoxy}pyrido[3,4-d]pyrimidin-4-yl)piperazin-1-yl]prop-2-en-1-one] | – | 2.56 | 44 | – | –
C=CC(=O)N1CCN(c2nc(Oc3cccc4c3CCN(CC)C4)nc3c(Oc4c(C)ccc5[nH]ncc45)nccc23)CC1 [Example 31I, 1-(4-{2-[(2-ethyl-1,2,3,4-tetrahydro-isoquinolin-5-yl)oxy]-8-[(5-methyl-1H-indazol-4-yl)oxy]pyrido [3,4-d]pyrimidin-4-yl}piperazin-1-yl)prop-2-en-1-one] | – | 0.041 | – | – | 31
C=CC(=O)N1CCN(c2ncnc3c(Oc4c(F)c(C)c(F)c5[nH]ncc45)nccc23)CC1 [Example 16A, 1-(4-{8-[(5,7-difluoro-6-methyl-1H-indazol-4-yl)oxy]pyrido[3,4-d]pyrimidin-4-yl}piperazin-1-yl)prop-2-en-1-one] | 7 | 29.6 | – | – | –
C=CC(=O)N1CCN(c2nc(N3CC4(C3)C(=O)NCN4C)nc3c(Oc4c(C)ccc5[nH]ncc45)cccc23)CC1 [Example 18F, 2-{4-(4-acryloylpiperazin-1-yl)-8-[(5-methyl-1H-indazol-4-yl)oxy]quinazolin-2-yl}-5-methyl-2,5,7-triazaspiro[3.4]octan-8-one] | 23 | 29.3 | – | – | –
C=CC(=O)N1CCN(c2nc(OC[C@@H]3C[C@@H](F)CN3C)nc3c(Oc4c(Cl)c(F)cc5[nH]ncc45)nccc23)CC1 [Example 16H, 1-[4-(8-[(5-chloro-6-fluoro-1H-indazol-4-yl)oxy]-2-{[(2S,4R)-4-fluoro-1-methylpyrrolidin-2-yl]methoxy}pyrido[3,4-d]pyrimidin-4-yl)piperazin-1-yl]prop-2-en-1-one] | – | 0.169 | – | 57 | –
C=CC(=O)N1CCN(c2nc(N3CC(N(C)C)C3)nc3c(Oc4c(Cl)c(C)cc5[nH]ncc45)cccc23)CC1 [Example 14E, 1-(4-{8-[(5-chloro-6-methyl-1H-indazol-4-yl)oxy]-2-[3-(dimethylamino)azetidin-1-yl]quinazolin-4-yl}piperazin-1-yl)prop-2-en-1-one] | 65 | 1.01 | – | – | –
C=CC(=O)N1CCN(c2nc(O[C@@H]3COC[C@H]3N(C)C)nc3c(Oc4c(Cl)c(F)cc5[nH]ncc45)nc(Cl)cc23)CC1 (racemic) [Example 30G, rac-1-[4-(6-chloro-8-[(5-chloro-6-fluoro-1H-indazol-4-yl)oxy]-2-{[(3S,4R)-4-(dimethylamino)oxolan-3-yl]oxy}pyrido[3,4-d]pyrimidin-4-yl)piperazin-1-yl]prop-2-en-1-one] | – | 0.026 | – | – | 53
C=CC(=O)N1CCN(c2ncnc3c(Oc4c(Cl)ccc5[nH]ncc45)nc(C(F)(F)F)cc23)CC1 [Example 04A] | 40 | 2.26 | – | – | –
C=CC(=O)N1CCN(c2nc(OC[C@@H]3CCCN3C)nc3c(Oc4c(Cl)c(F)cc5[nH]ncc45)nc(Cl)cc23)C[C@H]1C [Example 04G, 1-[(2R)-4-(6-chloro-8-[(5-chloro-6-fluoro-1H-indazol-4-yl)oxy]-2-{[(2S)-1-methylpyrrolidin-2-yl]methoxy}pyrido[3,4-d]pyrimidin-4-yl)-2-methylpiperazin-1-yl]prop-2-en-1-one] | – | 0.393 | 49 | – | –
C=CC(=O)N1CCN(c2nc(Oc3cccc4c3CCN(C)C4)nc3c(Oc4c(C)ccc5[nH]ncc45)nccc23)CC1 [Example 38I, 1-(4-{8-[(5-methyl-1H-indazol-4-yl)oxy]-2-[(2-methyl-1,2,3,4-tetrahydro-isoquinolin-5-yl)oxy]pyrido [3,4-d]pyrimidin-4-yl}piperazin-1-yl)prop-2-en-1-one] | – | 0.055 | – | – | 55
C=CC(=O)N1CCN(c2ncnc3c(Oc4c(C)ccc5[nH]ncc45)nccc23)CC1 [Example 01A, 1-(4-{8-[(5-methyl-1H-indazol-4-yl)oxy]pyrido[3,4-d]pyrimidin-4-yl}piperazin-1-yl)prop-2-en-1-one] | 11 | 11.8 | – | – | –
C=CC(=O)N1CCN(c2nc(O[C@@H]3CN(C)C[C@H]3C)nc3c(Oc4c(Cl)c(Cl)cc5[nH]ncc45)nccc23)CC1 (racemic) [Example 51I, rac-1-[4-(8-[(5,6-dichloro-1H-indazol-4-yl)oxy]-2-{[(3S,4R)-1,4-dimethyl-pyrrolidin-3-yl]oxy}pyrido [3,4-d]pyrimidin-4-yl)piperazin-1-yl]prop-2-en-1-one] | – | 0.031 | – | – | 39
C=CC(=O)N1CCN(c2nc(Oc3cccc4c3CCN(C(C)C)C4)nc3c(Oc4c(Cl)c(F)cc5[nH]ncc45)nccc23)CC1 [Example 19I, 1-[4-(8-[(5-chloro-6-fluoro-1H-indazol-4-yl)oxy]-2-{[2-(propan-2-yl)-1,2,3,4-tetrahydro-isoquinolin-5-yl]oxy}pyrido [3,4-d]pyrimidin-4-yl)piperazin-1-yl]prop-2-en-1-one] | – | 0.003 | – | – | 82
C=CC(=O)N1CCN(c2nc(OCC3CCCCN3C)nc3c(Oc4c(C)ccc5[nH]ncc45)cccc23)CC1 (stereo not drawn) [Example 21F, 1-(4-{8-[(5-methyl-1H-indazol-4-yl)oxy]-2-[(1-methylpiperidin-2-yl)methoxy]quinazolin-4-yl}piperazin-1-yl)prop-2-en-1-one] | – | 0.283 | – | 61 | –
C#CCCN1C[C@@H](OC)[C@H](Oc2nc(N3CCN(C(=O)C=C)CC3)c3cc(Cl)nc(Oc4c(Cl)c(F)cc5[nH]ncc45)c3n2)C1 [Example 39G, 1-[4-(2-{[(3R,4R)-1-(but-3-yn-1-yl)-4-methoxypyrrolidin-3-yl]oxy}-6-chloro-8-[(5-chloro-6-fluoro-1H-indazol-4-yl)oxy]pyrido[3,4-d]pyrimidin-4-yl)piperazin-1-yl]prop-2-en-1-one] | – | 0.014 | – | – | 76

From US10662204B2 (PFIZER INC., priority 2018, dated 2020)
